Bounds are passed on as bounds.

Experiment [1] deals with Endogenous Total ATXN3 (tATXN3) Protein. The experiment can be described thus: Endogenous Total ATXN3 (tATXN3) Protein Assay (MSD immunoassay of cell lysates). Format: cell-based. The following applies: cells incubated with compound 48 h; 7-point concentration curve; MSD plate readout. As to the method:
Meso Scale Discovery (MSD) 96-well or 384-well plates were coated overnight at 4° C. with Ataxin 3 mouse monoclonal antibody (Invitrogen, MA3-082) at a concentration of […] in PBS (30 μL per well). Plates were then washed three times with 300 μL wash buffer (0.05% TWEEN®-20, polyethylene glycol sorbitan monolaurate, in PBS) and blocked (Meso Scale Diagnostics, R93BA-1; 5% BSA in PBS) for 2 h at room temperature with rotational shaking and then washed three times with wash buffer.
(§1) Test compounds were serially diluted 3.16-fold in 100% DMSO to generate a 7-point concentration curve. Aliquots of 0.5 μL of diluted compounds were transferred to a 96-well flat bottom plate by a liquid handler. An aliquot of 0.5 μL DMSO was also transferred to separate wells and used as controls. Duplicate samples were set up for each compound concentration and for the DMSO control.
Cells were thawed and incubated in cell culture media (DMEM, 10% FBS, and 1% antibiotic cocktail) for 72 h. Cells were trypsinized, counted, and re-suspended to a concentration of 100,000 cells/mL in cell culture media. A 100 μL aliquot of the cell suspensions were plated at 10,000 cells per well in the compound containing 96 well microtiter plate and incubated for in a cell culture incubator (37° C., 5% CO2, 100% relative humidity). After 48 h, the medium was removed and 50-100 μL of lysis buffer (Meso Scale Diagnostics, R60TX-2) containing 1× halt protease inhibitor cocktail of (Thermo Scientific, Halt™ Protease Inhibitor Cocktail, 78430) per well was added to cells to provide a “cell lysate”. The plate was placed on a shaker at 4° C. for 30 minutes, then stored at −80° C.
Cell lysate samples (25 μL) were transferred to the antibody-coated MSD plate and incubated overnight at 4° C. After removal of the lysates, the plate was washed three times with wash buffer, and 25 μL of Ataxin 3 recombinant rabbit monoclonal antibody (Invitrogen, #702788) secondary antibody (diluted to 0.25 μg/mL in 0.05% TWEEN®-20 in blocking buffer) was added to each well and incubated with shaking for 1-2 h at room temperature. Following incubation with the secondary antibody, the wells were rinsed with wash buffer and then 25 μL of Anti Rabbit Antibody Goat SULFO-TAG Labeled (Meso Scale Diagnostics, R32AB-1) detecting antibody (diluted to 0.25 μg/mL in 0.05% TWEEN®-20 in blocking buffer) was added to each well and incubated with shaking for 1 h at room temperature. After rinsing three times with wash buffer, 150 μL of Read Buffer T with surfactant (tris-based buffer containing tripropylamine, Meso Scale Diagnostics, R92TC-1) were added to each empty well, and the plate was imaged on a SI 6000 imager (MSD) according to manufacturers' instructions provided for 96- or 384-well plates.

Experiment [2] relates to ATXN3 Pre-mRNA (exon 4 skipping). The experiment can be described thus: RT-qPCR Assay to Quantify Exon 4 Skipping in ATXN3 Pre-mRNA in Cells. Format: cell-based. The following applies: cells incubated with compound 24 h, normalised to GAPDH, 7-point concentration curve. Here is the method:
as §1
Cells were thawed and incubated in cell culture media (DMEM, 10% FBS, and 1% antibiotic cocktail) for 72 h. Cells were trypsinized, counted, and re-suspended to a concentration of 100,000 cells/mL in cell culture media. A 100 μL aliquot of the cell suspensions were plated at 10,000 cells per well in the compound containing 96 well microtiter plate and incubated for in a cell culture incubator (37° C., 5% CO2, 100% relative humidity).
After 24 h, media was aspirated from the cells and 50 μL of the RCL2 lysis buffer (10 mM Tris-HCL pH 7.4, 150 mM NaCl, 0.33% IGEPAL® CA-630) was added to each well and incubated at room temperature for 1 min. Chilled nuclease free water (50 μL per well) was added and the plates were immediately transferred on ice. After 1 min on ice, plates were frozen at −80° C. overnight.
Preparation of RT-qPCR Reaction Mixture:
An aliquot of 2 μL/well of the cell lysates was transferred using the liquid handler to the Armadillo 384-Well PCR plate containing 8 μL/well of the RT-qPCR reaction mixture that was prepared as detailed above. The plates were then sealed with MicroAmp™ Optical Adhesive Film followed by spinning down for 1 min and placed in the CFX384 thermocycler (BioRad).
The RT-qPCR was carried out at the following temperatures for the indicated time: • Step 1: 48° C. (30 min) • Step 2: 95° C. (10 min) • Step 3: 95° C. (15 sec) • Step 4: 60° C. (1 min); then, repeated Steps 3 and 4 for a total of 40 cycles.
The percent exon 4 skipping was calculated for each dose of compound treatment using Equations 1 and 2.
Data were fit to a dose response curve and the IC50 was interpolated using XLfit® statistical and curve fitting package.
An IC50 value between >2.0 μM and ≤3.0 μM is indicated by one star (*). […] IC50 value between >0.5 μM and ≤1.0 μM is indicated by four stars (****). An IC50 value ≤0.5 μM is indicated by five stars (*****).

Turning to `Cc1c(C[C@H](C)N)sc2c(NCc3ncc(F)s3)nc(Cl)nc12` [Cpd 93, 6-[(2S)-2-aminopropyl]-2-chloro-N-[(5-fluoro-1,3-thiazol-2-yl)methyl]-7-methylthieno[3,2-d]pyrimidin-4-amine], the IC50 in experiment [1] and in experiment [2] was no more than 500 nM in each case.

In the case of `Cc1c([C@@H](C)N)sc2c(NCc3ccco3)nc(Cl)nc12` [Cpd 94, 6-[(1R)-1-aminoethyl]-2-chloro-N-[(furan-2-yl)methyl]-7-methylthieno[3,2-d]pyrimidin-4-amine], the “IC50 (average, total ATXN3 protein)” value in experiment [1] is “inactive”. The “IC50 (exon 4 skipping in ATXN3 pre-mRNA)” value in experiment [2] was “inactive”.

As to `Cc1c(C[C@@H](N)CCO)sc2c(NCc3ccco3)nc(Cl)nc12` [Cpd 97, (3S)-3-amino-4-(2-chloro-4-{[(furan-2-yl)methyl]amino}-7-methylthieno[3,2-d]pyrimidin-6-yl)butan-1-ol], the IC50 in experiment [1] and in experiment [2] was no more than 500 nM each time.

The values are drawn from patent publication US20240043444A1, “METHODS FOR TREATING SPINOCEREBELLAR ATAXIA TYPE 3” (PTC Therapeutics, Inc., priority 2021, published 2024).
